Tests used:
Test in all cases: relative viability (nuclei count vs DMSO), 5 days (fraction); higher = more cells survive
AGI-6780 + OSI-027 = compound: O=C(Nc1cccc(C(F)(F)F)c1)Nc1cc(S(=O)(=O)NC2CC2)ccc1-c1ccsc1 [AGI-6780] + COc1cccc2cc(-c3nc([C@H]4CC[C@H](C(=O)O)CC4)n4ncnc(N)c34)[nH]c12 [OSI-027] (partner 0.5 µM)
Summary of the method: (§1)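 Dosing by pin tool came one day after lung cancer cell lines were seeded in 1536-well plates, using either one drug or a fixed anchor-drug dose plus five library-drug doses (not always all listed) in √10 steps. After 5 days, nuclei were counted on 4× images. Relative viability is treated-well nuclei count divided by vehicle-well nuclei count, and values are medians of duplicate plates.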

AGI-6780 + Luminespib = compound: O=C(Nc1cccc(C(F)(F)F)c1)Nc1cc(S(=O)(=O)NC2CC2)ccc1-c1ccsc1 [AGI-6780] + CCNC(=O)c1noc(-c2cc(C(C)C)c(O)cc2O)c1-c1ccc(CN2CCOCC2)cc1 [Luminespib] (partner 0.01 µM)
Summary of the method: as §1

AGI-6780 + Linsitinib = compound: O=C(Nc1cccc(C(F)(F)F)c1)Nc1cc(S(=O)(=O)NC2CC2)ccc1-c1ccsc1 [AGI-6780] + C[C@]1(O)C[C@@H](c2nc(-c3ccc4ccc(-c5ccccc5)nc4c3)c3c(N)nccn32)C1 [Linsitinib] (partner 1 µM)
Summary of the method: as §1

AGI-6780 + Lapatinib = compound: O=C(Nc1cccc(C(F)(F)F)c1)Nc1cc(S(=O)(=O)NC2CC2)ccc1-c1ccsc1 [AGI-6780] + CS(=O)(=O)CCNCc1ccc(-c2ccc3ncnc(Nc4ccc(OCc5cccc(F)c5)c(Cl)c4)c3c2)o1 [Lapatinib] (partner 2 µM)
Summary of the method: as §1

Row | Cell Line | relative viability (AGI-6780 + OSI-027; first compound 0.08 µM) | relative viability (AGI-6780 + OSI-027; first compound 0.253 µM) | relative viability (AGI-6780 + OSI-027; first compound 0.8 µM) | relative viability (AGI-6780 + OSI-027; first compound 2.53 µM) | relative viability (AGI-6780 + OSI-027; first compound 8 µM) | relative viability (AGI-6780 + Luminespib; first compound 0.08 µM) | relative viability (AGI-6780 + Luminespib; first compound 0.253 µM) | relative viability (AGI-6780 + Luminespib; first compound 0.8 µM) | relative viability (AGI-6780 + Luminespib; first compound 2.53 µM) | relative viability (AGI-6780 + Luminespib; first compound 8 µM) | relative viability (AGI-6780 + Linsitinib; first compound 0.08 µM) | relative viability (AGI-6780 + Linsitinib; first compound 0.253 µM) | relative viability (AGI-6780 + Linsitinib; first compound 0.8 µM) | relative viability (AGI-6780 + Linsitinib; first compound 2.53 µM) | relative viability (AGI-6780 + Linsitinib; first compound 8 µM) | relative viability (AGI-6780 + Lapatinib; first compound 0.08 µM) | relative viability (AGI-6780 + Lapatinib; first compound 0.253 µM) | relative viability (AGI-6780 + Lapatinib; first compound 0.8 µM) | relative viability (AGI-6780 + Lapatinib; first compound 2.53 µM) | relative viability (AGI-6780 + Lapatinib; first compound 8 µM)
1 | HARA | 0.573 | 0.594 | 0.339 | 0.197 | 0.514 | 0.787 | 0.594 | 0.177 | 0.944 | 0.93 | 0.921 | 0.949 | 0.841 | 0.971 | 0.985 | 0.872 | 0.825 | 0.613 | 0.681 | 0.707
2 | H3255 | 0.667 | 0.55 | 0.551 | 0.523 | 0.584 | 0.808 | 0.925 | 0.905 | 0.852 | 0.949 | 1 | 0.947 | 0.96 | 0.968 | 0.969 | 0.222 | 0.275 | 0.248 | 0.204 | 0.263
3 | SK-LU-1 | 0.348 | 0.406 |  | 0.312 | 0.359 | 0.22 | 0.192 |  | 0.199 | 0.224 | 1.11 | 0.976 | 0.76 | 0.917 | 1.16 | 0.928 | 0.857 | 0.683 | 0.863 | 1.14
4 | NCI-H1793 | 0.302 | 0.27 | 0.359 | 0.197 | 0.293 | 0.211 | 0.162 | 0.175 | 0.155 | 0.207 | 0.849 | 0.881 | 1.11 | 0.526 | 0.93 | 0.819 | 0.811 | 0.779 | 0.491 | 0.723
5 | EMC-BAC-2 | 0.383 | 0.384 | 0.338 | 0.301 | 0.427 | 1.2 | 1.24 | 1.17 | 0.947 | 1.18 | 0.845 | 0.82 | 0.835 | 0.782 | 0.822 | 0.919 | 0.929 | 0.878 | 0.725 | 0.94
6 | NCI-H2347 | 0.403 | 0.491 | 0.333 | 0.378 | 0.507 | 0.456 | 0.659 | 0.405 | 0.411 | 0.403 | 1.04 | 0.849 | 0.716 | 0.998 | 1.02 | 0.904 | 0.874 | 0.688 | 0.879 | 0.93
7 | EPLC-272H |  | 0.282 | 0.247 | 0.245 | 0.293 |  | 0.359 | 0.267 | 0.166 | 0.244 | 1.28 | 1.43 | 1.21 | 1.03 | 1.11 | 0.921 | 0.949 | 0.881 | 0.747 | 1.11
8 | LU99A | 0.339 | 0.304 | 0.28 | 0.255 | 0.31 | 0.229 | 0.258 | 0.235 | 0.223 | 0.277 | 0.581 | 0.57 | 0.54 | 0.498 | 0.565 | 1.12 | 0.98 | 0.976 | 0.825 | 1.03
9 | LXF-289 | 0.862 | 0.843 | 0.844 | 0.666 | 0.921 | 0.776 | 0.723 | 0.679 | 0.606 | 0.659 | 0.952 | 1.01 | 1.01 | 1.01 | 0.897 | 0.903 | 0.897 | 0.906 | 0.936 | 0.831
10 | NCI-H1395 | 0.632 | 0.846 | 0.674 | 0.53 | 0.662 | 1.02 | 0.78 | 0.73 | 0.646 | 0.615 | 1.14 | 1.16 | 1.12 |  | 1.14 | 0.941 | 1.06 | 1.01 |  | 1.04
11 | NCI-H520 | 0.293 | 0.3 | 0.303 | 0.189 | 0.28 | 0.23 | 0.255 | 0.234 | 0.178 | 0.231 | 1.04 | 0.959 | 0.979 | 0.753 | 1.04 | 0.913 | 0.983 | 0.981 | 0.775 | 0.968
12 | 201T | 0.713 | 0.694 | 0.723 | 0.325 | 0.753 | 1.09 | 1.04 | 1.06 | 0.988 | 1.08 | 1.06 | 1.06 | 1.02 | 0.993 | 1.01 | 1.03 | 1.01 | 1.02 | 1.01 | 1.02
13 | NCI-H1944 | 0.414 | 0.466 | 0.461 |  | 0.425 | 0.814 | 0.711 | 0.709 |  | 0.768 | 1.22 | 1.28 | 1.24 | 0.931 | 1.13 | 0.928 | 0.861 | 0.784 | 0.544 | 0.92
14 | NCI-H3122 | 0.998 | 0.913 | 1.08 | 0.727 | 1.01 | 0.0953 | 0.0902 | 0.113 | 0.0851 | 0.0997 | 1.03 | 0.982 | 1.01 | 1.08 | 1.04 | 1.02 | 0.987 | 1.09 | 1.02 | 1.08

— the supplement of paper PMC10307832
